We go through one compound from article PMC5050210, “BdorOBP83a-2 Mediates Responses of the Oriental Fruit Fly to Semiochemicals” (Frontiers in Physiology, 2016).

The structures appear in SMILES notation.

What all share (assay): direct fluorescence titration
Format in all cases: binding
Holding throughout (conditions): 50 mM Tris-HCl pH 7.4, 25°C; 2 μM protein, 1-16 μM 1-NPN; fluorescent probe

The target of one experiment is T1, BdorOBP84a-2 (Bactrocera dorsalis, UniProt A0A0G2UEQ7).
T1 construct: gene OBP84a-2; mature protein without signal peptide
T1 sequence (A0A0G2UEQ7 26-170): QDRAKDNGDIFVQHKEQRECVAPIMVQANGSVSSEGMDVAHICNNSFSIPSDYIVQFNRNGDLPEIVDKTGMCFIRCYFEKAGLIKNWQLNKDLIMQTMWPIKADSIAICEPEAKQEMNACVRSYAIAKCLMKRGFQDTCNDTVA

The target of the next experiment is T2, BdorOBP56h (Bactrocera dorsalis, UniProt A0A0G2UMU0).
T2 construct: gene OBP56h; mature protein without signal peptide
T2 sequence (A0A0G2UMU0 20-136): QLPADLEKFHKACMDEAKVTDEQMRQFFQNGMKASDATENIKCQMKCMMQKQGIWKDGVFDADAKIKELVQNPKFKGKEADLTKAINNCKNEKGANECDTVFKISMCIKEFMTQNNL

The next experiment has as its target T3, BdorCSP3 (Bactrocera dorsalis, UniProt A0A0G2UMR0).
T3 construct: gene CSP3; mature protein without signal peptide
T3 sequence (A0A0G2UMR0 23-156): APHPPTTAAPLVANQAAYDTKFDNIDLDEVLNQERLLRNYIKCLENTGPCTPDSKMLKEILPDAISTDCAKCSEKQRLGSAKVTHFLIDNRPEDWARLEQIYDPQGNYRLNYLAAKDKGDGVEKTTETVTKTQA

The target of another experiment is T4, BdorOBP83a-1 (Bactrocera dorsalis, UniProt A0A0G2UGI4).
T4 construct: gene OBP83a-1; mature protein without signal peptide
T4 sequence (A0A0G2UGI4 32-155): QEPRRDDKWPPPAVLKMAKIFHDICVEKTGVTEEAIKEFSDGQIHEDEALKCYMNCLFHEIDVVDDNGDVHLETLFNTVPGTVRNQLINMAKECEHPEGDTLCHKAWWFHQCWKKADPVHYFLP

The next experiment addresses T5, BdorOBP84a-1 (Bactrocera dorsalis, UniProt A0A0G2UGI7).
T5 construct: gene OBP84a-1; mature protein without signal peptide
T5 sequence (A0A0G2UGI7 25-167): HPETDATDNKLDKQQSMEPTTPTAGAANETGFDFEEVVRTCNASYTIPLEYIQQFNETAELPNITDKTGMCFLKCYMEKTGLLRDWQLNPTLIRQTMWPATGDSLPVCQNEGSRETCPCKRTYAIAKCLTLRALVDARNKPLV

The target of the next experiment is T6, BdorOBP83a-2 (Bactrocera dorsalis, UniProt A0A0G2UEQ3).
T6 construct: gene OBP83a-2; mature protein without signal peptide
T6 sequence (A0A0G2UEQ3 24-148): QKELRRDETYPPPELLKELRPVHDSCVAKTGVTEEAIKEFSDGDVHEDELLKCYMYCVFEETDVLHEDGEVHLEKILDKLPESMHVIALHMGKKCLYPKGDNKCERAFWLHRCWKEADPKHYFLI

`c1ccc(Nc2cccc3ccccc23)cc1` [1-NPN]: the K1-NPN result at BdorOBP84a-2, at BdorOBP56h, at BdorCSP3, on BdorOBP83a-1, at BdorOBP84a-1 and at BdorOBP83a-2 was “exhibited high affinity to the fluorescent probe 1-NPN” each time.
